Results on 10 compounds are retold here after patent US12478585B2, “Micelles and vesicles for the delivery of glycopeptides” (ARIZONA BOARD OF REGENTS ON BEHALF OF THE UNIVERSITY OF …, priority 2017, dated 2025).

Data set [1] can be described thus: CMC by surface tensiometry. The format is physicochemical. The note with it: Table 2. The text has this:
CMC measurements from DOSY experiments agree with previously reported surface tensiometry data for melibiosides and cellobiosides, as well as literature values for the glucosides.

The nature of data set [2]: CMC determination by DOSY NMR (diffusion coefficients vs inverse concentration, linear regression). Particulars: for CMC: DOSY, in D2O, Table 1; for CMC, DOSY (Diffusion Coefficients): Table 2. The format is physicochemical. The protocol:
Sample solutions were transferred (500 μL) to 5 mm NMR tubes for automated analysis via Bruker 400 MHz spectrometer. Gradient pulse strengths and delays were standardized for all experiments, with a pulse interval (δ) of 3 ms and diffusion interval (Δ) of 200 ms; these values were experimentally determined to ensure the arrayed diffusion data would provide a reasonable curve for accurate Dc determination.
Stacked data arrays were processed in MestReNova® by setting the appropriate value “k” standardized to known self-diffusion coefficients of the bulk solvent, then applying Bayesian DOSY transform to yield pseudo-2D spectra containing the ^1H NMR spectrum vs diffusion coefficients. Averaged values for samples at each concentration were plotted vs. the inverse concentration. Data points from monomeric and aggregated samples were identified by the first signs of decreasing Dc, and linear regression of the two sets provided an intercept estimated as the CMC. Slope and intercept errors were used to calculate error.
Linear regression of the data sets, i.e. monomers and aggregates, provided an intercept estimated as the CMC. […] CMC's decreased approximately a full order of magnitude when the hydrocarbon chain length increased by two methylene groups as described previously.

The conditions of data set [3]: literature; cited from earlier work.
Data set [4] can be described thus: Aggregate radius and aggregation number (Nagg) from DOSY diffusion data (Stokes-Einstein, spherical model). Particulars: D2O. Format: physicochemical. The protocol:
The Stokes-Einstein equation provided estimated aggregate radii from the recorded diffusion coefficients. Further, Tanford's equations: lc≤lmax≈(0.154+0.1265n)nm and v≈(27.4+26.9n)×[…] nm^3 were used to calculate the critical volume (v) and maximum length (lmax) of the hydrocarbon tail based on the length of the lipid tail, n. Energy-minimized structures in MOE® were measured to find critical length (lc) values.
The average micelle radius (r) was calculated for each concentration of the surfactants (FIG. 9). Using molecular volume (V) calculations from MOE®, a spherical model was used to estimate aggregation numbers (Nagg) for each sample (FIG. 10). In general, these values correspond well to values determined by fluorescence quenching experiments. For samples such as decyl glucoside and dodecyl melibioside, Nagg values greater than 200 are representative of both the fact that larger aggregates will form at high concentrations, and that D2O (and 0.9% NaCl in H2O) induces the formation of higher order structures. Dodecyl melibioside is an example, where previous fluorescence quenching experiments show Nagg averages at 65 in concentrations over 20 mM. For these DOSY experiments Nagg is above 300 at only 5 mM, […], and more likely describing rod-like aggregates.

The conditions of data set [5]: Table 2, marked (lit); cited from earlier work.
The nature of data set [6]: Solubility/precipitation behaviour in D2O, 0.9% NaCl and buffers.
Description: NMR samples were prepared in triplicate by diluting concentrated stock solutions of the alkyl glycoside or SDS in D2O to concentrations below the known or estimated CMC values. For highly concentrated and/or insoluble samples, vials were warmed in an oil bath until the solution formed and was clear and cooled to RT. Precipitated samples were measured both before and after filtration of the precipitate to observe diffusion behavior. Solutions of the three glucosides were also prepared from 100 mM stock solutions of the glycolipid in dry CHCl3, with addition of D2O to aid solubility and aggregation. Soluble samples were analyzed to determine behavior in apolar conditions.
The conditions of data set [7]: previous fluorescence quenching experiments, concentrations over 20 mM; cited from earlier work.

For `CCCCCCCCCCOC1O[C@H](CO)[C@@H](O[C@@H]2O[C@H](CO)[C@@H](O)[C@H](O)[C@H]2O)[C@H](O)[C@H]1O` (some centres unmarked) [Decyl Cellobioside], in data set [1], the “CMC, Surface Tens.” value is given as 1.8 ± 0.2 mM. For the same compound, in data set [2], the CMC amounted to 1.8 ± 0.3 mM and the “CMC, DOSY (Diffusion Coefficients)” value worked out at 2.2 ± 0.7 mM. Moreover, the “a0 [Lit.] (headgroup area)” value in data set [3] is given as 50 Å^2.

`CCCCCCCCCCO[C@@H]1O[C@H](CO)[C@@H](O)[C@H](O)[C@H]1O` [Decyl Glucoside]: in data set [4] (samples containing precipitate), the “radius of "large" aggregates” value is 90 Å and the “radius of "small" aggregates” value stood at 40 Å. Further, the “CMC, Surface Tens. (lit)” value in data set [5] is 2.2 mM. In addition, in data set [2], the CMC amounted to 1.9 ± 0.9 mM and the “CMC, DOSY (Diffusion Coefficients)” value came to 2.1 ± 0.7 mM. In data set [3], the “a0 [Lit.] (headgroup area)” value was 42 Å^2.

For `CCCCCCCCCCOC1O[C@H](CO[C@H]2O[C@H](CO)[C@H](O)[C@H](O)[C@H]2O)[C@@H](O)[C@H](O)[C@H]1O` (some centres unmarked) [Decyl Melibioside], the “CMC, Surface Tens.” value in data set [1] turned out to be 3.3 ± 0.2 mM. For the same compound, in data set [2], the CMC worked out at 3.9 ± 0.1 mM and the “CMC, DOSY (Diffusion Coefficients)” value is reported as 3.9 ± 0.1 mM. In addition, the “a0 [Lit.] (headgroup area)” value in data set [3] is 68 Å^2.

`CCCCCCCCCCCCOC1O[C@H](CO)[C@@H](O[C@@H]2O[C@H](CO)[C@@H](O)[C@H](O)[C@H]2O)[C@H](O)[C@H]1O` (some centres unmarked) [Dodecyl Cellobioside]: the “CMC, Surface Tens.” value in data set [1] stood at 0.18 ± 0.01 mM. The “CMC, DOSY (Diffusion Coefficients)” value in data set [2] is on record as 0.29 ± 0.4 mM. Besides, the “a0 [Lit.] (headgroup area)” value in data set [3] was 49 Å^2.

Take `CCCCCCCCCCCCO[C@@H]1O[C@H](CO)[C@@H](O)[C@H](O)[C@H]1O` [Dodecyl Glucoside]: the solubility / precipitation result in data set [6] is “remained insoluble”. Also, the “a0 [Lit.] (headgroup area)” value in data set [3] is given as 34 Å^2.

On to `CCCCCCCCCCCCOC1O[C@H](CO[C@H]2O[C@H](CO)[C@H](O)[C@H](O)[C@H]2O)[C@@H](O)[C@H](O)[C@H]1O` (some centres unmarked) [Dodecyl Melibioside], for which, in data set [4] (at 5 mM), the “Nagg (aggregation number)” value is recorded as “above 300”. Besides, the “CMC, Surface Tens.” value in data set [1] amounted to 0.30 ± 0.02 mM. For the same compound, in data set [2], the CMC stood at 0.3 ± 0.00 mM and the “CMC, DOSY (Diffusion Coefficients)” value was determined as 0.31 ± 0.005 mM. In data set [7], the “Nagg average (aggregation number)” value is on record as 65. For the same compound, the “a0 [Lit.] (headgroup area)” value in data set [3] is listed as 51 Å^2.

For the compound `CCCCCCCCOC1O[C@H](CO)[C@@H](O[C@@H]2O[C@H](CO)[C@@H](O)[C@H](O)[C@H]2O)[C@H](O)[C@H]1O` (some centres unmarked) [Octyl Cellobioside], in data set [1], the “CMC, Surface Tens.” value is reported as 19 ± 3 mM. Further, in data set [2], the CMC worked out at 19.7 ± 2.2 mM and the “CMC, DOSY (Diffusion Coefficients)” value is reported as 21 ± 2 mM. Besides, in data set [3], the “a0 [Lit.] (headgroup area)” value is listed as 50 Å^2.

For `CCCCCCCCO[C@@H]1O[C@H](CO)[C@@H](O)[C@H](O)[C@H]1O` [Octyl Glucoside], the “CMC, Surface Tens. (lit)” value in data set [5] was 20 mM. In data set [2], the CMC was 22.5 ± 2.4 mM and the “CMC, DOSY (Diffusion Coefficients)” value is given as 20 ± 3 mM. The “a0 [Lit.] (headgroup area)” value in data set [3] is 42 Å^2.

Regarding `CCCCCCCCOC1O[C@H](CO[C@H]2O[C@H](CO)[C@H](O)[C@H](O)[C@H]2O)[C@@H](O)[C@H](O)[C@H]1O` (some centres unmarked) [Octyl Melibioside], the “CMC, Surface Tens.” value in data set [1] is given as 44 ± 5 mM. Moreover, in data set [2], the CMC is reported as 39.9 ± 5.2 mM and the “CMC, DOSY (Diffusion Coefficients)” value is listed as 40 ± 5 mM. Further, the “a0 [Lit.] (headgroup area)” value in data set [3] is recorded as 73 Å^2.

On to `CCCCCCCCCCCCOS(=O)(=O)[O-].[Na+]` [SDS, reference compound], for which, in data set [5], the “CMC, Surface Tens. (lit)” value is 8.2 mM. In data set [2], the CMC is listed as 8.5 ± 1.7 mM and the “CMC, DOSY (Diffusion Coefficients)” value was found to be 8.4 ± 2 mM. In addition, in data set [3], the “a0 [Lit.] (headgroup area)” value is 61 Å^2.
